Measured values taken from patent publication US11053225B2, “Pyrimidine derivative compound, optical isomer thereof, or pharmaceutically acceptable salt thereof, and composition for preventing or treating Tyro 3 related disease comprising same as active ingredient” (KOREA RESEARCH INSTITUTE OF CHEMICAL TECHNOLOGY, priority 2017, dated 2021).

How the values were obtained:
Axl = Axl (Homo sapiens (Human), UniProt P30530); assay: Axl kinase inhibition assay (Cisbio method, Eu-labeled antibody to phosphorylated peptide); conditions: read-out: IC50 (μM) Axl; 1 hour reaction with substrate peptide and ATP
Axl, sequence (P30530 26-894): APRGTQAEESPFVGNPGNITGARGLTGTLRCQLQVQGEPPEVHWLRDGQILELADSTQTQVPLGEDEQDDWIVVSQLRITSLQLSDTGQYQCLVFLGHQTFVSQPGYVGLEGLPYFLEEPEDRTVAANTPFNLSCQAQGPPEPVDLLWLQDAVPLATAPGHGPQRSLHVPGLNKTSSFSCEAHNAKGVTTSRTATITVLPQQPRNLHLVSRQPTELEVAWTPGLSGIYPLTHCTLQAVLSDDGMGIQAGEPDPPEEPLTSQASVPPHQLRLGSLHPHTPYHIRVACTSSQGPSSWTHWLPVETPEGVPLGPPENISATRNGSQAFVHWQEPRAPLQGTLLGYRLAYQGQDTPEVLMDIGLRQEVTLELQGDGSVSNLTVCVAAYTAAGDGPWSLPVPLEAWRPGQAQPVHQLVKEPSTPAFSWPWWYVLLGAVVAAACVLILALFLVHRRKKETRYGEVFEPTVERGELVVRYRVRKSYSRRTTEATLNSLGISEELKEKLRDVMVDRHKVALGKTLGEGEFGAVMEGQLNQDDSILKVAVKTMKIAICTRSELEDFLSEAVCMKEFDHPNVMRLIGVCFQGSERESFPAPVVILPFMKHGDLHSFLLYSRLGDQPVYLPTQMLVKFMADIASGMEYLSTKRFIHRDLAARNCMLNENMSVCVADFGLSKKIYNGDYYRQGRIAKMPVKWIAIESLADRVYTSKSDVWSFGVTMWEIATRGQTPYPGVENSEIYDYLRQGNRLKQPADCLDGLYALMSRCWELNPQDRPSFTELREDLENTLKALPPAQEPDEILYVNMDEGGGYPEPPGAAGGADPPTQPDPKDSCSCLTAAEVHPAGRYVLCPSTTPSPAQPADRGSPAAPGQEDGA
Description: (§1) For evaluation of inhibitory activities of the compounds according to the present invention on Tyro 3, Axl, and Mer, the following test was carried out.
(§2) The specific test method followed the method provided by Cisbio. The compounds of the examples were prepared at various concentrations, followed by addition of Tyro 3, Axl, or Mer and substrate peptides, and then ATP was added to initiate a reaction. After 1 hour, the reaction was stopped by addition of a solution containing EDTA. Thereafter, the amount of phosphorylated peptides was measured. Here, the phosphorylated peptides were treated with an europium (Eu)-labeled antibody recognizing phosphorylated peptides, and then after 1 hour, excited by irradiation of the light of a wavelength of 320 or 340 nm using an Envision Reader.

hERG = hERG (Homo sapiens (Human), UniProt Q12809); assay: human ether-a-go-go-related gene (hERG) assay; conditions: for hERG toxicity: result in words
hERG, sequence (Q12809 whole entry): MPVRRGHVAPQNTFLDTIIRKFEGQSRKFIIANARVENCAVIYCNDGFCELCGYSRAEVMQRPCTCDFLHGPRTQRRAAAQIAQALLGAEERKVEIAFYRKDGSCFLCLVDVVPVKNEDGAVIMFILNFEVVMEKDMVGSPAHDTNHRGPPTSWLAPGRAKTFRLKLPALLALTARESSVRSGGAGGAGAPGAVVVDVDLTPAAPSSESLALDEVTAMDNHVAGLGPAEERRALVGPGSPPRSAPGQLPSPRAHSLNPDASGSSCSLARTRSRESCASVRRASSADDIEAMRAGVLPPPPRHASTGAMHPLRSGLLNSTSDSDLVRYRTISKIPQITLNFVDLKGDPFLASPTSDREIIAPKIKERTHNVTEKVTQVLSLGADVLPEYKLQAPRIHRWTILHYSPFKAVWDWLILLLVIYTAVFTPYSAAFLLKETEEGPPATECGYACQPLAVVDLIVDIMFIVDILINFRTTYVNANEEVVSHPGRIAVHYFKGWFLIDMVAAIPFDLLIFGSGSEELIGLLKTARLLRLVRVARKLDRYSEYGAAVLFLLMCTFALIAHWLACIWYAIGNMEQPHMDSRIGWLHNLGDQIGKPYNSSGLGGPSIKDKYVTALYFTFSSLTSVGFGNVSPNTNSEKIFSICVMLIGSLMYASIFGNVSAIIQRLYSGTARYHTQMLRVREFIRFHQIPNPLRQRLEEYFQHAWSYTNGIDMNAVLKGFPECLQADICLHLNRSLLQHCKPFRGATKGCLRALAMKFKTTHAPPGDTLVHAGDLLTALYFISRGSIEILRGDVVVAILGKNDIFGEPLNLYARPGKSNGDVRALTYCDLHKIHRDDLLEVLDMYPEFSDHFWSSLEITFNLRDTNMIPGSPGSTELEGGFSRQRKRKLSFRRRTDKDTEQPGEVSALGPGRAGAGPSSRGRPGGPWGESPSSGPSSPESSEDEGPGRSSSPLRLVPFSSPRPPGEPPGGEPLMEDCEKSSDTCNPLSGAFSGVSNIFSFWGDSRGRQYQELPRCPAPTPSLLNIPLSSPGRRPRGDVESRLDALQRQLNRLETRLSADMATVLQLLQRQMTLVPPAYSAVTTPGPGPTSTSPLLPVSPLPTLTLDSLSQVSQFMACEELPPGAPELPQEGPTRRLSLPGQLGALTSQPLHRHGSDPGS
Description: In the development of medicines, drug toxicity as well as therapeutic effects plays an important role. One of the most commonly used criteria for determining drug toxicity is human ether-a-go-go-related gene (hERG) toxicity. Most pharmaceutical companies determine a drug showing a hERG IC50 value of less than 0.1 μM to be highly toxic, and thus stop the development of the drug. Whereas, the companies determine a drug showing a hERG IC50 value of 10 μM or more to be non-toxic.
For investigation of the degree of drug toxicity by TAM receptor inhibiting compounds of the present invention, human ether-a-go-go-related gene (hERG) assay was performed on Compounds 29, 60, 73, 75, 84, 89, and 132 on Table 4.

Mer = Mer (Homo sapiens (Human), UniProt Q12866); assay: Mer kinase inhibition assay (Cisbio method, Eu-labeled antibody to phosphorylated peptide); conditions: read-out: IC50 (μM) Mer; 1 hour reaction with substrate peptide and ATP
Mer, sequence (Q12866 21-999): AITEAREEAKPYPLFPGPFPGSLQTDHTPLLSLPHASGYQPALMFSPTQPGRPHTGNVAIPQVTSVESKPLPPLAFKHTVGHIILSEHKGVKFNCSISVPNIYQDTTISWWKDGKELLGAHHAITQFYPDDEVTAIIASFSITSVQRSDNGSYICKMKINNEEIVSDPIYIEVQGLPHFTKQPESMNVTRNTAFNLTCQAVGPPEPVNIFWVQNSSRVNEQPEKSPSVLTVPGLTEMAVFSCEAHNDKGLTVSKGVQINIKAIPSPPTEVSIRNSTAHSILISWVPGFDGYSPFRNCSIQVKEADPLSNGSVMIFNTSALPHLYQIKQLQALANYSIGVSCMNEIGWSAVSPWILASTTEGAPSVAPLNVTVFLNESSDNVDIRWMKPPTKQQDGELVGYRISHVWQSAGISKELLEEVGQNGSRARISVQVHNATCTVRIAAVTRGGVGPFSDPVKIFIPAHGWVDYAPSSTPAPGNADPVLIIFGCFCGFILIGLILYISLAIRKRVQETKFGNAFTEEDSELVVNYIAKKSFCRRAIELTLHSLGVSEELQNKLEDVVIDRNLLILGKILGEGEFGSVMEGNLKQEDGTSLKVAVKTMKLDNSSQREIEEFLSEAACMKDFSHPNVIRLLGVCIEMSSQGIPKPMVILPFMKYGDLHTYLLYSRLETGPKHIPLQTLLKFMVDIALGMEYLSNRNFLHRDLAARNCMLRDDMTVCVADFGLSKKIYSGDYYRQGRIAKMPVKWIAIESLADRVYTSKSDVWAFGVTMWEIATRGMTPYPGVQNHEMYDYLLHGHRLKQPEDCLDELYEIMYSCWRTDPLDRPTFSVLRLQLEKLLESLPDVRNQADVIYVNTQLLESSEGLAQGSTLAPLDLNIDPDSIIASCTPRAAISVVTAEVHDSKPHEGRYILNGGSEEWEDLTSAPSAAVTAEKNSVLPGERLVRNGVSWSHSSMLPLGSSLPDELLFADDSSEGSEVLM
Description: as §1, §2

IC50 (Axl) [µM] | SMILES | also measured
> 10 | Cc1ccc(Nc2ncc(-c3ccc(C)cc3)c(NC3CCCCC3)n2)cc1 [Compound 2, N4-cyclohexyl-N2,5-di-(p-tolyl)pyrimidine-2,4-diamine] | 
> 10 | Cn1cc(-c2cnc(Nc3ccccc3)nc2NC2CCCCC2)cn1 [Compound 6, N4-cyclohexyl-5-(1-methyl-1H-pyrazol-4-yl)-N2-phenylpyrimidine-2,4-diamine] | 
> 10 | COc1ccc(Nc2ncc(-c3cnn(C)c3)c(NC3CCCCC3)n2)cc1Cl [Compound 9, N2-(3-chloro-4-methoxyphenyl)-N4-cyclohexyl-5-(1-methyl-1H-pyrazol-4-yl)pyrimidine-2,4-diamine] | 
> 10 | Cc1ccc(Nc2ncc(-c3ccoc3)c(NC3CCCCC3)n2)cc1 [Compound 14, N4-cyclohexyl-5-(furan-3-yl)-N2-(p-tolyl)pyrimidine-2,4-diamine] | 
> 10 | Clc1cc(Cl)cc(Nc2ncc(-c3ccoc3)c(NC3CCCCC3)n2)c1 [Compound 15, N4-cyclohexyl-N2-(3,5-dichlorophenyl)-5-(furan-3-yl)pyrimidine-2,4-diamine] | 
> 10 | Cn1cc(-c2cnc(NCCc3ccncc3)nc2NC2CCCCC2)cn1 [Compound 17] | 
> 10 | Cn1cc(-c2cnc(NC34CC5CC(CC(C5)C3)C4)nc2NC2CCCCC2)cn1 [Compound 23, N4-cyclohexyl-N2-adamantyl-5-(1-methyl-1H-pyrazol-4-yl)pyrimidine-2,4-diamine] | 
 | Cn1cc(-c2cnc(Nc3cc(Cl)cc(Cl)c3)nc2NC2CCNCC2)cn1 [Compound 29, N2-(3,5-dichlorophenyl)-5-(1-methyl-1H-pyrazol-4-yl)-N4-(piperidin-4-yl)pyrimidine-2,4-diamine] | IC50 (hERG): ≤ 1 µM
> 10 | Cc1cc(Nc2ncc(-c3cnn(C)c3)c(NC3CCN(C(=O)C(F)(F)F)CC3)n2)ccc1Cl [Compound 43, 1-(4-(2-(3-methyl-4-chlorophenylamino)-5-(1-methyl-1H-pyrazol-4-yl)pyrimidin-4-ylamino)piperidin-1-yl)-2,2,2-trifluoroethanone] | 
> 10 | COc1ccc(Nc2ncc(-c3cnn(C)c3)c(NC3CCN(C(=O)C(F)(F)F)CC3)n2)cc1 [Compound 44, 1-(4-(2-(4-methoxyphenylamino)-5-(1-methyl-1H-pyrazol-4-yl)pyrimidin-4-ylamino)piperidin-1-yl)-2,2,2-trifluoroethanone] | 
> 10 | COc1ccc(Nc2ncc(-c3cnn(C)c3)c(NC3CCNCC3)n2)cc1 [Compound 47, N2-(4-methoxyphenyl)-5-(1-methyl-1H-pyrazol-4-yl)-N4-(piperidin-4-yl)pyrimidine-2,4-diamine] | 
> 10 | Cc1ccc(Nc2ncc(-c3ccoc3)c(NC3CCN(C(=O)C(F)(F)F)CC3)n2)cc1 [Compound 49, 1-(4-(2-(p-toluidino)-5-(furan-3-yl)pyrimidin-4-ylamino)piperidin-1-yl)-2,2,2-trifluoroethanone] | 
> 10 | Cc1cccc(Nc2ncc(-c3ccoc3)c(NC3CCN(C(=O)C(F)(F)F)CC3)n2)c1 [Compound 50, 1-(4-(2-(m-toluidino)-5-(furan-3-yl)pyrimidin-4-ylamino)piperidin-1-yl)-2,2,2-trifluoroethanone] | 
 | COc1cccc(-c2cnc(Nc3cc(Cl)cc(Cl)c3)nc2NC2CCNCC2)c1 [Compound 60, N2-(3,5-dichlorophenyl)-5-(3-methoxyphenyl)-N4-(piperidin-4-yl)pyrimidine-2,4-diamine] | IC50 (hERG): ≤ 1 µM
> 10 | COc1ccc(Nc2ncc(-c3ccc(OC)c(OC)c3)c(NC3CCN(C(=O)C(F)(F)F)CC3)n2)cc1 [Compound 64, 1-(4-(5-(3,4-dimethoxyphenyl)-2-(4-methoxyphenylamino)pyrimidin-4-ylamino)piperidin-1-yl)-2,2,2-trifluoroethanone] | 
> 10 | COc1ccccc1Nc1ncc(-c2ccc(OC)c(OC)c2)c(NC2CCNCC2)n1 [Compound 68, 5-(3,4-dimethoxyphenyl)-N2-(2-methoxyphenyl)-N4-(piperidin-4-yl)pyrimidine-2,4-diamine] | 

IC50 (Axl) [µM] | SMILES | also measured
> 10 | COc1ccc(-c2cnc(Nc3cccc(Cl)c3)nc2NC2CCN(C(=O)C(F)(F)F)CC2)cc1OC [Compound 69, 1-(4-(2-(3-chlorophenylamino)-5-(3,4-dimethoxyphenyl)pyrimidin-4-ylamino)piperidin-1-yl)-2,2,2-trifluoroethanone] | 
> 10 | Cn1cc(-c2cnc(Nc3ccc4c(c3)CN(C(=O)C(F)(F)F)CC4)nc2NC2CCN(C(=O)C(F)(F)F)CC2)cn1 [Compound 70, 1-(4-(5-(1-methyl-1H-pyrazol-4-yl)-2-(2-(2,2,2-trifluoroacetyl)-1,2,3,4-tetrahydroisoquinolin-7-ylamino)pyrimidin-4-ylamino)piperidin-1-yl)-2,2,2-trifluoroethanone] | 
> 10 | O=C(N1CCC(Nc2nc(Nc3cc(Cl)cc(Cl)c3)ncc2-c2cnn(CCO)c2)CC1)C(F)(F)F [Compound 71, 1-(4-(2-(3,5-dichlorophenylamino)-5-(1-(2-hydroxyethyl)-1H-pyrazol-4-yl)pyrimidin-4-ylamino)piperidin-1-yl)-2,2,2-trifluoroethanone] | 
 | Clc1cc(Cl)cc(Nc2ncc(-c3cnn(C4CCNCC4)c3)c(NC3CCNCC3)n2)c1 [Compound 73, N2-(3,5-dichlorophenyl)-N4-(piperidin-4-yl)-5-(1-(piperidin-4-yl)-1H-pyrazol-4-yl)pyrimidine-2,4-diamine] | IC50 (hERG): ≥ 50 µM
 | OCCn1cc(-c2cnc(Nc3cc(Cl)cc(Cl)c3)nc2NC2CCNCC2)cn1 [Compound 75, 2-(4-(2-(3,5-dichlorophenylamino)-4-(piperidin-4-ylamino)pyrimidin-5-yl)-1H-pyrazol-1-yl)ethanol] | IC50 (hERG): ≥ 50 µM
 | Cn1cc(-c2cnc(Nc3cc(Cl)cc(Cl)c3)nc2Nc2ccc3c(c2)CNCC3)cn1 [Compound 84, N2-(3,5-dichlorophenyl)-5-(1-methyl-1H-pyrazol-4-yl)-N4-(1,2,3,4-tetrahydroisoquinolin-7-yl)pyrimidine-2,4-diamine] | hERG toxicity (hERG): no hERG toxicity
> 10 | Cn1cc(-c2cnc(Nc3ccc4c(c3)CN(C(=O)C(F)(F)F)CC4)nc2N[C@H]2CC[C@@H](NC(=O)C(F)(F)F)CC2)cn1 [Compound 86, N-((1s,4s)-4-(5-(1-methyl-1H-pyrazol-4-yl)-2-(2-(2,2,2-trifluoroacetyl)-1,2,3,4-tetrahydroisoquinolin-7-ylamino)pyrimidin-4-ylamino)cyclohexyl)-2,2,2-trifluoroacetamide] | 
> 10 | Cn1cc(-c2cnc(Nc3ccc4c(c3)CNCC4)nc2N[C@H]2CC[C@@H](N)CC2)cn1 [Compound 88, N4-((1s,4s)-4-aminocyclohexyl)-5-(1-methyl-1H-pyrazol-4-yl)-N2-(1,2,3,4-tetrahydroisoquinolin-7-yl)pyrimidin-2,4-diamine] | 
 | OCCn1cc(-c2cnc(Nc3cc(Cl)cc(Cl)c3)nc2Nc2ccc3c(c2)CNCC3)cn1 [Compound 89, 2-(4-(2-(3,5-dichlorophenylamino)-4-(1,2,3,4-tetrahydroisoquinolin-7-ylamino)pyrimidin-5-yl)-1H-pyrazol-1-yl)ethanol] | hERG toxicity (hERG): no hERG toxicity
> 10 | O=C(NC1CCC(Nc2nc(Nc3cc(Cl)cc(Cl)c3)ncc2-c2cnn(C3CCNCC3)c2)CC1)C(F)(F)F (centres unmarked) [Compound 122, 1-(4-(2-(3,5-dichlorophenylamino)-5-(1-(piperidin-4-yl)-1H-pyrazol-4-yl)pyrimidin-4-ylamino)cyclohexyl)-2,2,2-trifluoroacetamide] | 
> 10 | O=C(N1CCc2ccc(Nc3nc(Nc4cc(C(F)(F)F)cc(C(F)(F)F)c4)ncc3-c3cnn(CCO)c3)cc2C1)C(F)(F)F [Compound 124, 1-(7-(2-(3,5-bis(trifluoromethyl)phenylamino)-5-(1-(2-hydroxyethyl)-1H-pyrazol-4-yl)pyrimidin-4-ylamino)-3,4-dihydroisoquinolin-2(1H)-yl)-2,2,2-trifluoroethanone] | 
> 10 | O=C(N1CCc2ccc(Nc3nc(Nc4cccc(Cl)c4Cl)ncc3-c3cnn(CCO)c3)cc2C1)C(F)(F)F [Compound 125, 1-(7-(2-(2,3-dichlorophenylamino)-5-(1-(2-hydroxyethyl)-1H-pyrazol-4-yl)pyrimidin-4-ylamino)-3,4-dihydroisoquinolin-2(1H)-yl)-2,2,2-trifluoroethanone] | 
 | Clc1cc(Cl)cc(Nc2ncc(-c3cnn(C4CCNCC4)c3)c(Nc3ccc4c(c3)CNCC4)n2)c1 [Compound 132, N2-(3,5-dichlorophenyl)-5-(1-(piperidin-4-yl)-1H-pyrazol-4-yl)-N4-(1,2,3,4-tetrahydroisoquinolin-7-yl)pyrimidine-2,4-diamine] | hERG toxicity (hERG): no hERG toxicity
> 10 | Cn1cc(-c2cnc(Nc3cc(C(F)(F)F)cc(C(F)(F)F)c3)nc2Nc2ccc3c(c2)CNCC3)cn1 [Compound 136, N2-(3,5-bis(trifluoromethyl)phenyl)-5-(1-methyl-1H-pyrazol-4-yl)-N4-(1,2,3,4-tetrahydroisoquinolin-7-yl)pyrimidine-2,4-diamine] | 
> 10 | COc1cc(Nc2ncc(-c3cnn(C)c3)c(Nc3ccc4c(c3)CN(C(=O)C(F)(F)F)CC4)n2)cc(OC)c1 [Compound 138, 1-(7-(2-(3,5-dimethoxyphenylamino)-5-(1-methyl-1H-pyrazol-4-yl)pyrimidin-4-ylamino)-3,4-dihydroisoquinolin-2(1H)-yl)-2,2,2-trifluoroethan-1-one] | 
 | CCOc1cn(-c2ccc(F)cc2C)nc1C(=O)Nc1ccc(Oc2ccnc3cc(OC)c(OC)cc23)c(F)c1 [LDC1267, reference compound] | IC50 (Mer): 0.068 µM
